From patent publication US6740494B2, “Nuclear matrix protein fluid assay” (Matritech, Inc., priority 1991, dated 2004)

System: MCF7 cells
Assay: Cytotoxic reagent assay: Doxorubicin, MTT live cells and 41/7 ELISA
Type: cell-based
Settings: 450 nM, 1-96 hours, MCF7, FIG. 7
Description: 2. In this experiment, the effect of a known cancer chemotherapeutic agent (Doxorubicin, Sigma Inc.) on soluble nuclear matrix protein release into extracellular fluid was assessed.
A standard curve for live cells was established with MCF7 cells (breast carcinoma, adherent). Cells were seeded into 6 well plates in 2 mls of DME complete (5% FCS+SerXtend) with 0.5 micrograms/ml mitomycin C (Sigma, Inc., Cincinnati) to prevent any cell growth.
After incubating overnight at 37° C., 200 μl of 3-[4, 5 Dimethylthiazol-2-4] 2, 5-dipheny(tetrazoluim bromide), MTT, stock solution (5 mg/ml MTT in phosphate-buffered saline, Sigma, Inc.) were added to each well. After the plates were incubated for four hours at 37° C. and 5% CO2 the supernatants were aspirated off and 4 mls of DMSO (dimethyl sulfoxide) were added to solubilize remaining crystals. This was drawn off and the absorbance was read in the spectrophotometer at 562 nm against a blank of straight DMSO.
Cells were treated with Doxorubicin as follows: MCF7 cells were seeded into 6 well plates at a density of 1.3×10^5 cells/well in 2 mls DME complete. […]
At 1, 24, 48, 72, and 96 hours, the supernatants were removed and frozen at −20° C. to assay later. After replacing the supernatant with a fresh 2 ml of DME complete, the number of live cells was determined using the same procedure as for the standard curve. […]

Compound: COc1cccc2c1C(=O)c1c(O)c3c(c(O)c1C2=O)C[C@@](O)(C(=O)CO)C[C@@H]3O[C@H]1C[C@H](N)[C@H](O)[C@H](C)O1 [Doxorubicin]
- cell viability (MTT live cells) versus nuclear matrix protein released (41/7 ELISA): inversely related to nuclear matrix protein released
